# Reference: ChEMBL document CHEMBL4813916, “Synthesis and characterization of new potent TLR7 antagonists based on analysis of the binding mode using biomolecular simulations” (Eur J Med Chem, 2021)
# Target: T1, Toll-like receptor 7 (Homo sapiens, UniProt Q9NYK1)
# T1 sequence (Q9NYK1 whole entry): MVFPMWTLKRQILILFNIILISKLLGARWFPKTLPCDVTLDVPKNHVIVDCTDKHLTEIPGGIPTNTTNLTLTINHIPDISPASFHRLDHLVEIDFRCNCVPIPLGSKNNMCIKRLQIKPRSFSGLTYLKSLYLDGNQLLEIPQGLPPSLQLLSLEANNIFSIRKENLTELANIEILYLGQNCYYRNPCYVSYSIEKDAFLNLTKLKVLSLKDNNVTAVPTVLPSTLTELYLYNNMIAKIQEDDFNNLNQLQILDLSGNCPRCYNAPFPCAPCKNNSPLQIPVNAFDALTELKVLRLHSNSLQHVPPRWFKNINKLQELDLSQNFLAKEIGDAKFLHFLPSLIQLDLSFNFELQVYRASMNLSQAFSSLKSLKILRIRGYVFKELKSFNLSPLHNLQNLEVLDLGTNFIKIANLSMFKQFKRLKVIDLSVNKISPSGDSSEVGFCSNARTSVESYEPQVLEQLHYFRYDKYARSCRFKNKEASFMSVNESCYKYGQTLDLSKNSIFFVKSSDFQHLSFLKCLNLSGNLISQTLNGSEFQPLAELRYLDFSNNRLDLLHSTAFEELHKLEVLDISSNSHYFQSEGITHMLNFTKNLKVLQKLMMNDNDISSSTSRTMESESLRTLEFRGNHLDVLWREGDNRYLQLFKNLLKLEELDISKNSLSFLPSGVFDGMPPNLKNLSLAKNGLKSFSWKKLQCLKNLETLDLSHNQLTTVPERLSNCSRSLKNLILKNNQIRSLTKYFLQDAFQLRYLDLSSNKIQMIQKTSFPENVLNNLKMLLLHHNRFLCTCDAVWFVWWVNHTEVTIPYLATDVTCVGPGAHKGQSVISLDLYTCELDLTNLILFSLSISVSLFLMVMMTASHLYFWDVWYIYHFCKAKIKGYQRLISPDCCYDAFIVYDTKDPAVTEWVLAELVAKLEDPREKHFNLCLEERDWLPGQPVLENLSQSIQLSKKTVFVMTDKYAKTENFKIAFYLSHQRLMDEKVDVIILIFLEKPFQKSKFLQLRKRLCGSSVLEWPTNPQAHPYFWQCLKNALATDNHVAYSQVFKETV
# Test: Antagonist activity at human TLR7 expressed in HEK-blue-HTLR7 cells assessed as inhibition of CL264-induced NFkappaB activation measured after 24 hrs by secreted alkaline phosphatase reporter assay
# Assay type: cell-based
row,IC50 [µM],SMILES
1,19.9,COc1ccc(CNc2nc(N3CCN(C)CC3)c3cc(OC)c(OCc4ccccc4)cc3n2)cc1
2,27.8,COc1ccc(CNc2nc(N3CCNCC3)c3cc(OC)c(OCc4ccccc4)cc3n2)cc1
3,> 50,COc1cc2c(N(C)C)nc(NCCCN3CCN(C)CC3)nc2cc1OCCCN1CCCC1
4,1.83,COc1ccc(CNc2nc(N3CCN(C4CCCC4)CC3)c3cc(OC)c(OCCCN4CCCC4)cc3n2)cc1

# Target: T1, Toll-like receptor 7
# Test: Antagonist activity at TLR7 (unknown origin)
row,IC50 [µM],SMILES
1,23,CC(C)Cn1cnc2c(=O)oc3ccccc3c21
2,110,CCCSc1nc2c(O)nnc(O)c2n1Cc1ccccc1
3,10,COc1cc2c(N3CCN(C(=O)OC(C)(C)C)CC3)nc(N3CCN(C)CC3)nc2cc1OCc1ccccc1
4,10,COc1cc2c(N3CCN(C(=O)c4ccccc4)CC3)nc(N(C)C)nc2cc1OC1CCCC1
5,660,CCCNc1nc2c(c(=O)n(C)c(=O)n2C)n1CC(C)C
6,> 1000,COC(=O)[C@H]1O[C@H](n2cnc3c(N)ncnc32)[C@H](O)[C@@H]1O
7,272,Nc1ncnc2c1nc(Br)n2C[C@@H](O)CO
8,37,CCN(CC)CCn1cnc2c(=O)oc3ccccc3c21
9,66.2,NCc1ccc(C(=O)Nc2cccc(-c3nc4cc(OCCCN5CCCC5)ccc4o3)c2)cc1
10,185,CCCCSc1nnc2n(N)c(=O)c3ccccc3n12
11,253,CCSc1nc2c(N)ncnc2[nH]1
12,684,Nc1ncnc2c1ncn2CCO
